Molecules are shown by their SMILES. Counter-ions that a name gives are not always drawn.

Usually inhibition stands for the share of the control response that was lost under treatment. The Ki is a dissociation constant, usually derived from enzyme kinetics or from competition with a known ligand.

Chain of human MCH-1 receptor (Q99705 whole entry): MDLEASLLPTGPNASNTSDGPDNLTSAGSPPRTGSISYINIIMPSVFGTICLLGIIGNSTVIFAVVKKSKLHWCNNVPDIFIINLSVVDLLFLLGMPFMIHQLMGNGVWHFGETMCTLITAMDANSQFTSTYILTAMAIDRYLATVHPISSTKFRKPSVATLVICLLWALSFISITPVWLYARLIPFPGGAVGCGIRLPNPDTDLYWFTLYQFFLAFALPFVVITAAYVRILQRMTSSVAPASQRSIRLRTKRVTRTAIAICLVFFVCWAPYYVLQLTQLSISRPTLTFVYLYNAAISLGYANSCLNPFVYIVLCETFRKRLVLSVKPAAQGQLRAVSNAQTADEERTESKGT

For one assay, the target named is human MCH-1 receptor (Homo sapiens (Human), UniProt Q99705). Nature of the assay: Binding Assay for Human Melanin-Concentrating Hormone (MCH-1) Receptor (radioligand displacement, CHO-K1 membranes). As to conditions: @ 1 uM test compound; read-out: MCH-1 percent inhibition of control radioligand specific binding. The protocol:
Evaluation of the affinity of compounds for the human MCH-1 receptor was accomplished using 4-(3,4,5-tritritiumbenzyloxy)-1-(1-(2-(pyrrolidin-1-yl)ethyl)-1H-indazol-5-yl)pyridin-2(1H)-one and membranes prepared from stable CHO-K1 cells expressing the human MCH1 receptor obtained from Euroscreen (Batch 1138). Cell membrane homogenates (8.92 μg protein) were incubated for 60 min at 25° C. with […] of the [^3H]-labeled compound in the absence or presence of the test compound in 50 mM Tris-HCl buffer, pH 7.4. Nonspecific binding was determined in the presence of 50 μM 1-(5-(4-cyanophenyl)bicyclo[3.1.0]hexan-2-yl)-3-(4-fluoro-3-(trifluoromethyl)phenyl)-1-(3-(4-methylpiperazin-1-yl)propyl)urea. Following incubation, the samples were filtered rapidly under vacuum through Skatron 11731 filters, pre-soaked in 0.5% polyethylenimine, and washed with ice-cold 50 mM Tris-HCl buffer, pH 7.4, (wash setting 9,9,0) using a Skatron cell harvester. The filters were counted for radioactivity in a liquid scintillation counter (Tri-Carb 2100TR, Packard) using a scintillation cocktail (Ultima Gold MV, Perkin Elmer).
The results are expressed as a percent inhibition of the control radioligand specific binding. The IC50 value (concentration causing a half-maximal inhibition of control specific binding) and Hill coefficient (nH) were determined by non-linear regression analysis of the competition curve using Hill equation curve fitting. The inhibition constant (Ki) was calculated from the Cheng Prusoff equation: (Ki=IC50/(1+(L/KD)), where L=concentration of radioligand in the assay, and KD=affinity of the radioligand for the receptor.
(In a radioligand displacement assay an active substance lowers the binding of a labelled ligand.)
Regarding `Cn1c2c(c3ccc(N4CCN(CCc5ccccc5)CC4=O)cc31)C1CCC(C2)N1` (single isomer, unassigned; enantiomer a) [Example 34, 1-(5-Methyl-5,6,7,8,9,10-hexahydro-7,10-iminocyclohept[b]indol-3-yl)-4-phenethylpiperazin-2-one dihydrochloride (Enantiomer A)], the inhibition at 1 µM came to 68%.
In the case of `Cn1c2c(c3ccc(-n4ccc(-c5ccc(C(F)(F)F)nc5)cc4=O)cc31)C1CCC(C2)N1` (single isomer, unassigned; enantiomer a) [Example 37, 1-(5-Methyl-5,6,7,8,9,10-hexahydro-7,10-iminocyclohept[b]indol-3-yl)-4-(6-(trifluoromethyl)pyridin-3-yl)pyridin-2(1H)-one hydrochloride (Enantiomer A)], the inhibition at 1 µM is 72%.

The same assay, now with this note: MCH-1 Ki (nM), membranes from CHO-K1 cells expressing human MCH1 receptor; [3H]-labeled radioligand; Ki from IC50 by Cheng Prusoff.
Consider `Cn1c2c(c3ccc(-n4ccc(OCc5ccccc5)cc4=O)cc31)C1CCC(C2)N1` (single isomer, unassigned; enantiomer a) [Example 14, 4-(Benzyloxy)-1-(5-methyl-5,6,7,8,9,10-hexahydro-7,10-iminocyclohept[b]indol-3-yl)pyridin-2(1H)-one hydrochloride (Enantiomer A)], for which the Ki turned out to be 15.8 nM.
The same measure, in the same setting: the value for `Cn1c2c(c3ccc(-n4ccc(OCc5ccc(F)cn5)cc4=O)cc31)C1CCC(C2)N1` (single isomer, unassigned; enantiomer a) [Example 25, (+)-4-((5-Fluoropyridin-2-yl)methoxy)-1-(5-methyl-5,6,7,8,9,10-hexahydro-7,10-iminocyclohept[b]indol-3-yl)pyridin-2(1H)-one hydrochloride (Enantiomer A)] was 19 nM; that for `CC(=O)N1C2CCC1c1c(n(C)c3cc(-n4ccc(OCc5ccc(F)cn5)cc4=O)ccc13)C2` (single isomer, unassigned; enantiomer a) [Example 29, 1-(11-Acetyl-5-methyl-5,6,7,8,9,10-hexahydro-7,10-iminocyclohept[b]indol-3-yl)-4-((5-Fluoropyridin-2-yl)methoxy)pyridin-2(1H)-one (Enantiomer A)] was 75 nM.
In turn, `CC(=O)N1C2CCC1c1c([nH]c3cc(-n4ccc(OCc5ccccc5)cc4=O)ccc13)C2` (single isomer, unassigned; enantiomer a) [Example 30, 1-(11-Acetyl-5,6,7,8,9,10-hexahydro-7,10-iminocyclohept[b]indol-3-yl)-4-(benzyloxy)pyridin-2(1H)-one hydrochloride (Enantiomer A)] returned a Ki of 97 nM.
Take `Cn1c2c(c3ccc(-n4ccc(OCc5ccccc5)cc4=O)cc31)C1CCC(C2)N1` (single isomer, unassigned; enantiomer b) [Example 15, 4-(Benzyloxy)-1-(5-methyl-5,6,7,8,9,10-hexahydro-7,10-iminocyclohept[b]indol-3-yl)pyridin-2(1H)-one hydrochloride (Enantiomer B)]: the Ki is 7.8 nM.
For the molecule `Cn1c2c(c3ccc(-n4ccc(OCc5ccc(F)cn5)cc4=O)cc31)C1CCC(C2)N1` (single isomer, unassigned; enantiomer b) [Example 24, (−)-4-((5-Fluoropyridin-2-yl)methoxy)-1-(5-methyl-5,6,7,8,9,10-hexahydro-7,10-iminocyclohept[b]indol-3-yl)pyridin-2(1H)-one hydrochloride (Enantiomer B)], the Ki worked out at 7.4 nM.
Consider `Cn1c2c(c3ccc(N4CCN(CCc5ccccc5)CC4=O)cc31)C1CCC(C2)N1` (single isomer, unassigned; enantiomer b) [Example 33, 1-(5-Methyl-5,6,7,8,9,10-hexahydro-7,10-iminocyclohept[b]indol-3-yl)-4-phenethylpiperazin-2-one dihydrochloride (Enantiomer B)], for which the Ki came out at 17 nM.
For `Cn1c2c(c3ccc(-n4ccc(-c5ccc(C(F)(F)F)nc5)cc4=O)cc31)C1CCC(C2)N1` (single isomer, unassigned; enantiomer b) [Example 36, 1-(5-Methyl-5,6,7,8,9,10-hexahydro-7,10-iminocyclohept[b]indol-3-yl)-4-(6-(trifluoromethyl)pyridin-3-yl)pyridin-2(1H)-one hydrochloride (Enantiomer B)], the affinity, expressed as Ki, was 5.3 nM.
`Cn1c2c(c3ccc(-n4ccc(OCc5ccc(C(F)(F)F)nc5)cc4=O)cc31)C1CCC(C2)N1` (single isomer, unassigned; enantiomer b) [Example 38, 1-(5-Methyl-5,6,7,8,9,10-hexahydro-7,10-iminocyclohept[b]indol-3-yl)-4-((6-(trifluoromethyl)pyridin-3-yl)methoxy)pyridin-2(1H)-one hydrochloride (Enantiomer B)] gave a Ki of 12 nM.

The assay is the same for the next values; noted with them: membranes from CHO-K1 cells expressing human MCH1 receptor; [3H]-labeled radioligand; Ki from IC50 by Cheng Prusoff; read-out: MCH-1 Ki.
For the molecule `Cn1c2c(c3ccc(-n4ccc(-c5ccc(C(F)(F)F)cn5)cc4=O)cc31)C1CCC(C2)N1` (single isomer, unassigned; enantiomer b) [Example 16, 1-(5-Methyl-5,6,7,8,9,10-hexahydro-7,10-iminocyclohept[b]indol-3-yl)-4-(5-(trifluoromethyl)pyridin-2-yl)pyridin-2(1H)-one hydrochloride (Enantiomer B)], the Ki was found to be 14 nM.
On to `Cc1ccc(-c2ccn(-c3ccc4c5c(n(C)c4c3)CC3CCC5N3)c(=O)c2)cn1` (single isomer, unassigned; enantiomer b) [Example 35, 1-(5-Methyl-5,6,7,8,9,10-hexahydro-7,10-iminocyclohept[b]indol-3-yl)-4-(6-methylpyridin-3-yl)-pyridin-2(1H)-one hydrochloride (Enantiomer B)], for which the Ki stood at 59 nM.
Take `Cn1c2c(c3ccc(-n4ccc(OCc5ccccc5)cc4=O)cc31)C1CCC(C2)N1` (centres unmarked) [Example 2, 4-(Benzyloxy)-1-(5-methyl-5,6,7,8,9,10-hexahydro-7,10-iminocyclohept[b]indol-3-yl)pyridin-2(1H)-one hydrochloride]: the Ki came out at 10.5 nM.
Regarding `Cn1c2c(c3ccc(-n4ccc(-c5ccc(C(F)(F)F)cn5)cc4=O)cc31)C1CCC(C2)N1` (centres unmarked) [Example 4, 1-(5-Methyl-5,6,7,8,9,10-hexahydro-7,10-iminocyclohept[b]indol-3-yl)-4-(5-(trifluoromethyl)pyridin-2-yl)pyridin-2(1H)-one dihydrochloride], the Ki turned out to be 16.1 nM.
Regarding `Cn1c2c(c3ccc(-n4ccc(-c5ccc(C(F)(F)F)nc5)cc4=O)cc31)C1CCC(C2)N1` (centres unmarked) [Example 5, 1-(5-Methyl-5,6,7,8,9,10-hexahydro-7,10-iminocyclohept[b]indol-3-yl)-4-(6-(trifluoromethyl)pyridin-3-yl)pyridin-2(1H)-one dihydrochloride], the Ki was 6.5 nM.
Turning to `Cn1c2c(c3ccc(-n4ccc(OCc5ccc(F)cn5)cc4=O)cc31)C1CCC(C2)N1` (centres unmarked) [Example 6, 4-((5-Fluoropyridin-2-yl)methoxy)-1-(5-methyl-5,6,7,8,9,10-hexahydro-7,10-iminocyclohept[b]indol-3-yl)pyridin-2(1H)-one dihydrochloride], the Ki turned out to be 13.5 nM.
With `Cn1c2c(c3ccc(-n4ccc(-c5cnc(C(F)(F)F)nc5)cc4=O)cc31)C1CCC(C2)N1` (centres unmarked) [Example 7, 1-(5-Methyl-5,6,7,8,9,10-hexahydro-7,10-iminocyclohept[b]indol-3-yl)-4-(2-(trifluoromethyl)pyrimidin-5-yl)pyridin-2(1H)-one hydrochloride], the Ki was 68.1 nM.
With `O=c1cc(OCc2ccc(F)cn2)ccn1-c1ccc2c3c([nH]c2c1)CC1CCC3N1` (centres unmarked) [Example 9, 4-((5-Fluoropyridin-2-yl)methoxy)-1-(5,6,7,8,9,10-hexahydro-7,10-iminocyclohept[b]indol-3-yl)pyridin-2(1H)-one dihydrochloride], the Ki was determined as 25.3 nM.
Same read-out and setting: the same measure for `Cn1c2c(c3ccc(-n4ccc(OCc5ccc(F)cn5)cc4=O)cc31)C1CCCC(C2)N1` (centres unmarked) [Example 11, 4-((5-Fluoropyridin-2-yl)methoxy)-1-(5-methyl-6,7,8,9,10,11-hexahydro-7,11-imino-5H-cyclooct[b]indol-3-yl)pyridin-2(1H)-one dihydrochloride]: 21.3 nM.
Consider `Cn1c2c(c3ccc(-n4ccc(OCc5ccccc5)cc4=O)cc31)C1CCCC(C2)N1` (centres unmarked) [Example 12, 4-(Benzyloxy)-1-(5-methyl-6,7,8,9,10,11-hexahydro-7,11-imino-5H-cyclooct[b]indol-3-yl)pyridin-2(1H)-one hydrochloride], for which the Ki was 9.3 nM.
In the case of `Cn1c2c(c3ccc(-n4ncc(OCc5ccc(F)cn5)cc4=O)cc31)C1CCCC(C2)N1` (centres unmarked) [Example 17, 5-((5-Fluoropyridin-2-yl)methoxy)-2-(5-methyl-6,7,8,9,10,11-hexahydro-7,11-imino-5H-cyclooct[b]indol-3-yl)pyridazin-3(2H)-one hydrochloride], the Ki worked out at 28 nM.
`CC(C)N1C2CCC1c1c(n(C)c3cc(-n4ccc(OCc5ccccc5)cc4=O)ccc13)C2` (centres unmarked) [Example 28, 4-(Benzyloxy)-1-(11-isopropyl-5-methyl-5,6,7,8,9,10-hexahydro-7,10-iminocyclohept[b]indol-3-yl)pyridin-2(1H)-one hydrochloride]: the Ki stood at 12 nM.

Values taken from US8629158B2, “Azabicycloalkane-indole and azabicycloalkane-pyrrolo-pyridine MCH-1 antagonists, methods of making, and use thereof” (Albany Molecular Research, Inc., priority 2009, dated 2014).
